Earlier results in US20130116211A1, “Novel Salts Of Boswellic Acids And Selectively Enriched Boswellic Acids And Processes For The Same” (priority 2005, published 2013).

Experiments:
5-LOX = target: T1, 5-LOX (Homo sapiens, UniProt P09917)
T1 sequence (P09917 1-674): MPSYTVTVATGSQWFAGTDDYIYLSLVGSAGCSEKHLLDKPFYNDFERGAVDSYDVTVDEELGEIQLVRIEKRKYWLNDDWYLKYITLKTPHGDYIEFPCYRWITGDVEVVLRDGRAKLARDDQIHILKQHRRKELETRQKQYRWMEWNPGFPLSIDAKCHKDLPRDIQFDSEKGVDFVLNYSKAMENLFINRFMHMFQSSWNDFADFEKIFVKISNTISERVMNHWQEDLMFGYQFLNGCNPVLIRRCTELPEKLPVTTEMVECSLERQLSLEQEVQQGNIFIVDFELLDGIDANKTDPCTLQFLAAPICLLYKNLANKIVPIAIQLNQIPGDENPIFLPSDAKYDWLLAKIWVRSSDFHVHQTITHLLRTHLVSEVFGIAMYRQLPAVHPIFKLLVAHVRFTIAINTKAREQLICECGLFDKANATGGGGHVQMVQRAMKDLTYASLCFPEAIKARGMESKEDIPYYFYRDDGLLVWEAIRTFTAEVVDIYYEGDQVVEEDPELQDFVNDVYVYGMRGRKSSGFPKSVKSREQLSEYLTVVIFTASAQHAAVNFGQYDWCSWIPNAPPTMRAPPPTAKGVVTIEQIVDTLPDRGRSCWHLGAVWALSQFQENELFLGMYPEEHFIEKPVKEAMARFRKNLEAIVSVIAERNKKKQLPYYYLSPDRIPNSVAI

[1] = system: symptoms of osteoarthritis; settings: relieving the symptoms of osteoarthritis, double-blind studies

Molecule	mechanism of 5-LOX inhibition (5-LOX; binds in a calcium-dependent and reversible manner (Sailer 1998))	inhibitory activity against 5-LOX (5-LOX; compared among all the six boswellic acids (Sailer 1996))	therapeutic effects versus non steroidal anti-inflammatory drugs [1]
3-O-acetyl-11-keto-β-boswellic acid [AKBA]	non-redox-type, non-competitive inhibitor	most pronounced inhibitory activity	
N[C@H]1C(O)O[C@H](CO)[C@@H](O)[C@@H]1O.O=S(=O)(O)O (stereo partly drawn) [glucosamine sulfate]			comparable to or even better than
